Data reported in patent US7605280B2, “Anthraquinone and its derivatives” (Biostatus Limited, priority 1998, dated 2009).

Tests used:
Monocytes = experiment: FACScan (Cytometer C) flow cytometric analysis of DRAQ5-labelled cells; assay type: cell-based, human
Method: (§1) Suspension cultures were analysed by flow cytometry without washing. Human blood was obtained using routine venepuncture of a healthy donor and samples manipulated using standard haematological procedures for the isolation of mononuclear blood cells and surface antigen recognition using antibody panels (see Table 1).
(§2) Cells were analysed using one of four flow cytometers according to the excitation requirements. • Cytometer A: Single beam high power 647 nm krypton laser excitation: The system was a custom-built cytometer and incorporated an Innova 3000K krypton laser (Coherent Corp., Palo Alto, Calif., USA) tuned to the 647 nm line. Forward light scatter, 90° light scatter and fluorescence emissions were collected for 1×10^4 cells using the 90° light scatter parameter as the master signal. The optical system permitted the analysis of various fluorescence emission wavelengths including: >715 nm (termed low infra-red) and, as reported here >780 nm fluorescence (infra-red ). Forward and 90° light scatter were analysed for the identification of cell debris. Laser power was set at 200 mW and linear amplifiers were used for the fluorescence signals. The analysis optics included a 675 nm cold dichroic mirror, ambient laboratory temperature was approximately 12° C. and the sheath reservoir was maintained at 10° C. Filters were supplied by Melles Griot. Median, mean and mode parameters were calculated for the distribution of fluorescence intensity-values throughout a given cell population. In all experiments, median and mean values produced very similar results. Median values alone are reported since this parameter is less affected by the presence of highly fluorescent cells beyond the upper limit for quantification. • Cytometer B: Dual beam low power 633 nm/high power 488 nm laser excitation: The system was a FACS 440 cell sorter (Becton Dickinson Inc., Cowley, UK) incorporating a Spectra Physics argon ion laser (max 500 mW output), tuned to the 488 nm line (100 mW output), and a secondary Spectra Physics 156 helium-neon laser emitting at 633 nm (emitting <5 mW), with a temporal beam separation of about 30 μsec. Forward light scatter, 90° light scatter and fluorescence emissions were collected for 1×10^4 cells using the forward light scatter parameter as the master signal from the primary 488 nm beam, while side scatter was collected through a 488/10 nm band-pass filter. The analysis optics included: i) a cold dichroic mirror (transmitting >675 nm), ii) fluorescence from fluorescein excited by the 488 nm beam detected at a PMT guarded by a 535/15 nm band-pass filter with no signal delay, and iii) a red-sensitive PMT with an appropriate delay, additionally guarded by a 620 nm long-pass filter, to detect the transmitted beam of DRAQ5-associated fluorescence at wavelengths beyond 675 nm (high-red and extending into the infra red region of the spectrum) Forward and 90° light scatter were analysed to exclude any cell debris. All parameters were acquired at 256 channel resolution with Consort 30 software (Becton Dickinson) and subsequently analysed with WinMDI software (J. Trotter, La Jolla, Calif.). The system employed the same analysis optics when used in the single 488 nm beam mode but with no signal delay for the red-sensitive PMT. • Cytometer C: Single beam, low power 488 nm laser excitation: The system was a FACScan (Becton Dickinson; Inc., Cowley, UK) incorporating an argon ion laser (max 15 mW output), tuned to the 488 nm line. Forward light scatter, 90° light scatter and fluorescence emissions were collected for 1×10^4 cells using the forward light scatter parameter as the master signal. The standard analysis optics provided the FL1 […]/FL3 (red) PMT parameters with pulse analysis performed on the FL3 originating signals. • Cytometer D: Triple beam medium power 633 nm/medium power 488 nm/medium power multiline-UV laser excitation: […]

Lymphocytes = experiment: as above; assay type: cell-based, human
Method: as §1, §2

[1] = Preparation 3, 20 μM DRAQ5, 120 min
[2] = Preparation 3, 4.8 × 10^5/ml, 20 μM DRAQ5, 5 min
[3] = Preparation 3, 7.5 × 10^5/ml, 20 μM DRAQ5, 5 min
[4] = Preparation 3 Ficoll-isolated viable mononuclear blood cells, 2.5 × 10^5/ml, 20 μM DRAQ5, 5 min
[5] = Preparation 4 (Preparation 3 plus surface antigen analysis), 20 μM DRAQ5, 5 min
[6] = Preparation 5 whole blood, viable cells, 20 μM DRAQ5, 5 min
[7] = Preparation 6 whole blood, cells lysed and fixed, 20 μM DRAQ5, 5 min

CN(C)CCNc1ccc(O)c2c1C(=O)c1c(O)ccc(NCCN(C)C)c1C2=O [DRAQ5]
Mean fluorescence intensity (±sd) of gated population (Monocytes; [1]): 342.2 ± 22.4
Mean fluorescence intensity (±sd) of gated population (Monocytes; [2]): 301.8 ± 24.3
Mean fluorescence intensity (±sd) of gated population (Monocytes; [3]): 311.0 ± 30.9
Mean fluorescence intensity (±sd) of gated population (Monocytes; [4]): 302.9 ± 25.4
Mean fluorescence intensity (±sd) of gated population (Monocytes; [5]): 317.9 ± 27.3
Mean fluorescence intensity (±sd) of gated population (Monocytes; [6]): 274.6 ± 41.0
Mean fluorescence intensity (±sd) of gated population (Monocytes; [7]): 240.2 ± 28.1
enhanced staining potential of monocytes versus lymphocytes (Monocytes; Preparations 3 and 4): 1.14-1.4 fold
Mean fluorescence intensity (±sd) of gated population (Lymphocytes; [1]): 299.1 ± 23.9
Mean fluorescence intensity (±sd) of gated population (Lymphocytes; [2]): 215.9 ± 26.3
Mean fluorescence intensity (±sd) of gated population (Lymphocytes; [3]): 234.1 ± 27.0
Mean fluorescence intensity (±sd) of gated population (Lymphocytes; [4]): 227.4 ± 24.5
Mean fluorescence intensity (±sd) of gated population (Lymphocytes; [5]): 261.6 ± 26.3
Mean fluorescence intensity (±sd) of gated population (Lymphocytes; [6]): 257.3 ± 35.0
Mean fluorescence intensity (±sd) of gated population (Lymphocytes; [7]): 228.5 ± 28.5
